Source: paper PMC11073699, “Odorant receptors for floral- and plant-derived volatiles in the yellow fever mosquito, Aedes aegypti (Diptera: Culicidae)” (PLOS ONE, 2024)
“And” between values parts separate entries of the source, which are not always exact repeats. Equal values may be shown once.

target: T1, AaegOR11 (Aedes aegypti, UniProt Q16PN4); assay: Two-electrode voltage clamp of Xenopus laevis oocytes expressing AaegOR11/Orco (blends, unitary compounds, concentration-response); format: cell-based; settings: average over oocytes (9; fenchones 6)
T1 sequence (Q16PN4 1-420): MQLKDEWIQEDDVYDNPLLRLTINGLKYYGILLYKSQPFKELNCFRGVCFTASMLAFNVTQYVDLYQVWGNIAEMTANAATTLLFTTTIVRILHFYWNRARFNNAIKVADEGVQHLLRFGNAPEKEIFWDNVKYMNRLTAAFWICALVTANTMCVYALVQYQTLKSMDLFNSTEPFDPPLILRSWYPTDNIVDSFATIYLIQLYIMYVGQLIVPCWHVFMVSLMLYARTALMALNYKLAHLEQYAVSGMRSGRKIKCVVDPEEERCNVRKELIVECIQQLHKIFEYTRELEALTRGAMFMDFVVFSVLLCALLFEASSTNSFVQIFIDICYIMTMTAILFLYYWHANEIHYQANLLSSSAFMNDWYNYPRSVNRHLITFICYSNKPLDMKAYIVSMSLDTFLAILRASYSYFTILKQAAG
T1 sequence (Q178U6 1-478 partner): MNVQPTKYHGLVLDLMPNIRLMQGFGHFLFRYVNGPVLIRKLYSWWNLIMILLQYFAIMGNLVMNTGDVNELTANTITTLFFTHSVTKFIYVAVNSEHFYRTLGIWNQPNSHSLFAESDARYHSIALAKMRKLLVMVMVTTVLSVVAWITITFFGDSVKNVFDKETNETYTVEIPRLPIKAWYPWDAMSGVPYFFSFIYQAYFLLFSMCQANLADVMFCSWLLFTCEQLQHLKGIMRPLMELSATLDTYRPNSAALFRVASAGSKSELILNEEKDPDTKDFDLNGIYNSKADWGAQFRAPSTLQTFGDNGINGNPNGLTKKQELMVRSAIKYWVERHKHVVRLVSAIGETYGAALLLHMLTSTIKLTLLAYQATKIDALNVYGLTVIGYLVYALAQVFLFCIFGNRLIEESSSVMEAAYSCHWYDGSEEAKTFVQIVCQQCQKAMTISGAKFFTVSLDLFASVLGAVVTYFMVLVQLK
From the text: The coding regions of ten AaegOR genes of interest (S3 File) and AaegOrco were synthesized by Twist Bioscience (San Francisco, CA, USA) and cloned into the pENTR plasmid. The Gateway LR directional cloning system (Invitrogen Corp., Carlsbad, CA, USA) was utilized to subclone AaegOR coding regions into the pSP64t-RFA oocyte expression plasmid. Plasmids were purified using the GeneJet Plasmid Miniprep Kit (ThermoFisher Scientific, Waltham, MA, USA). Purified plasmids were sequenced in both directions to confirm coding regions.
Chemical compounds (S6 File) used in the deorphanization of AaegORs were purchased from Acros Organics (Morris, NJ, USA), Alfa Aesar (Ward Hill, MA, USA), and ThermoFisher Scientific (Waltham, MA, USA) at the highest purity available. Compounds were stored as 1M stocks in 100% DMSO. Serial dilutions of each compound were prepared in 10% DMSO and blended by chemical class.
pSP64t-RFA: AaegOR clones were linearized using Xbal, and cRNAs were synthesized using the mMESSAGE mMACHINE ® SP6 kit (Life Technologies, Carlsbad, CA, USA). Xenopus laevis stage V-VII oocytes purchased from Xenopus1 (Dexter, MI, USA) were stored at 18°C in Incubation medium (ND96 96 with 5% dialyzed horse serum, 50μg/mL gentamycin, 100μg/mL streptomycin, 100μg/mL penicillin, and 550μg/mL sodium pyruvate). 30nL of cRNA was injected into multiple oocytes using a microinjection syringe pump (World Precision Instruments, Sarasota, FL, USA) maintained at 18°C for 48–72 hrs. Odorant blends were perfused across individual oocytes for 10–15 seconds, held at a resting membrane potential of -80 mV using an OC-725C oocyte clamp (Warner Instruments, LLC, Hamden, CT, USA). Induced currents were measured indirectly using the two-electrode voltage clamp technique (TEVC). Following each stimulus, currents were allowed to return to baseline before further stimulation. Data was captured using the Digidata 1550 B digitizer and PClamp10 software (Molecular Devices, San Jose, CA, USA). Concentration-response curves were generated by perfusing unitary odorants over oocytes at increasing concentrations from [10^-3M] to [10^-9M]. Data were analyzed using GraphPad Prism 8 (GraphPad Software Inc., La Jolla, CA, USA). At least two biological replicates were conducted at each concentration and for each compound. Data for at least seven oocytes responding to each compound was analyzed (S7 File).

Compound | Normalized response, Average, unitary compounds of blend Terpenes 3
CC1(C)C(=O)[C@@]2(C)CCC1C2 (single isomer, unassigned; (+)) [(+) Fenchone] | 36.7
CC1(C)C(=O)[C@]2(C)CCC1C2 (single isomer, unassigned; (-)) [(-) Fenchone] | 23.3
CCCCC/C=C\C=C\C(=O)OCC [Ethyl-2-trans-4-cis-decadienoate] | 0.0
CC(=O)OCCC(C)C [Isomyl acetate] | 0.0
C=C1CCC2(C(C)C)CC12 (centres unmarked) [Sabiene] | 0.556

same assay, conditions: individual oocytes 1-9 (replicates)

Compound | Raw data (Responses in nA), unitary compounds of blend Terpenes 3
CC1(C)[C@H]2CC[C@]1(C)[C@H](O)C2 [(-)-Borneol] | 0 nA
CCCCC/C=C\C=C\C(=O)OCC [Ethyl-2-trans-4-cis-decadienoate] | 0 nA
CC(=O)OCCC(C)C [Isomyl acetate] | 0 nA
CC(C)=CCC/C(C)=C\CO [Nerol] | 0 nA
C=C1CCC2(C(C)C)CC12 (centres unmarked) [Sabiene] | 0 nA (8×) and 5 nA
C=C1CC/C=C(\C)CC[C@@H]2[C@@H]1CC2(C)C [beta-caryophyllene] | 10 nA (2×) and 0 nA (6×) and 20 nA

same assay, conditions: individual oocytes; normalized to cis-Decahydro-1-napthol = 100

Compound | Normalized response, unitary compounds of blend Terpenes 3
CC1(C)C(=O)[C@@]2(C)CCC1C2 (single isomer, unassigned; (+)) [(+) Fenchone] | 40.0 and 50.0 (2×) and 30.0 and 25.0 (2×)
CC1(C)C(=O)[C@]2(C)CCC1C2 (single isomer, unassigned; (-)) [(-) Fenchone] | 20.0 and 25.0 (2×) and 10.0 (2×) and 50.0
CCCCC/C=C\C=C\C(=O)OCC [Ethyl-2-trans-4-cis-decadienoate] | 0.0
CC(=O)OCCC(C)C [Isomyl acetate] | 0.0
C=C1CCC2(C(C)C)CC12 (centres unmarked) [Sabiene] | 0.0 (8×) and 5.0

same assay, conditions: six further oocytes in columns without head (fenchone comparison with cis-Decahydro-1-napthol)

Compound | Raw data (Responses in nA), unitary compounds, additional oocytes
CC1(C)C(=O)[C@@]2(C)CCC1C2 (single isomer, unassigned; (+)) [(+) Fenchone] | 10 nA
